The target in data set [1] is T1, interaction between ICAM-1 and LFA-1 (Homo sapiens, UniProt P05107+P20701).
T1 construct: endogenous in cells; host or cells: JY (human B cell line) for LFA-1; TNF-alpha stimulated HUVEC (Clonetics) for ICAM-1
Nature of the data set: Adhesion of JY cells to TNF-α stimulated human endothelial cells (JY-EC). Particulars: for IC50: JY cells on TNF-α stimulated human endothelial cells, 30 minutes at 37° C., read-out: JY-EC IC50 (concentration at which adhesion is inhibited to 50% of control level). The data set is classed as cell-based. An excerpt:
In order to establish the pharmacological properties of the compounds of formula (I) as a method of treatment for immuno-inflammatory disease in a patient suffering therefrom--such diseases being for the most part, but not limited exclusively to, graft rejection, ischemia reperfusion, asthma/allergy, delayed type hypersensitivity and AIDS--an in vitro assay was used to determine the effect of the compounds of the present invention on β2 mediated adhesion. Because human endothelial cells (EC's) express low levels of ICAM-1 on their surface and stimulation with TNF-α increases its expression, adhesion of lymphocytes can be measured following the principal assay design as described below for the human B cell line JY.
A. Cell Adhesion to Stimulated Endothelial Cells
Human umbilical vein endothelial cells (HUVEC) were purchased from Clonetics (San Diego, Calif.) at passage number 2. The cells were growth on 0.5% porcine skin gelatin pre-coated flasks (Sigma, St. Louis, Mo.) in EGM-UV media (Clonetics, San Diego, Calif.) supplemented with 10% fetal bovine serum. Cells are re-fed every 2-3 days, reaching confluence by day 4 to 6. […] The endothelial cells are not used following passage 7. Endothelial cells are grown to confluency in 96-well micro-titer assay plate.
The human B cell line JY was cultured in RPMI media containing 10% fetal calf serum at 37° C. in a humidified CO2 atmosphere. JY cells are loaded with the fluorescent dye indicator BCECF as follows: JY cells are washed twice with HBSS and cells are then re-suspended in HBSS at 5×10^6 cells/ml; BCECF-AM (Molecular Probes), stock concentration=1 mg/ml in DMSO, is added to the JY cells to a final concentration of 2 μg/ml; cells are incubated in the dark at 37° C. for 30-45 minutes; washed twice with HBSS and used in the assay.
The compounds presented in this invention are typically dissolved in 2.5 mg HSA/ml DME at four times the assay concentration and pH adjusted with 7.5% Na bicarbonate as needed. A confluent monolayer of human EC's in microtiter plates is stimulated with 50 U/ml TNF-α for 20 hours, and on the next day washed twice with DMEM-HSA before use. The EC's may be fixed by treatment with 3% paraformaldehyde. The assay plate is placed on ice, and test compound is added to quadruplicate wells, then all wells received 2.5×10^5 labeled JY cells and an optional stimulus (e.g. phorbol ester). Plates are incubated for 30 minutes at 37° C. in a CO2 incubator. Plates are washed four times with 100 μl PBS/well and the fluorescence of the adherent cells is measured using a fluorescence reader. Fluorescence in each well is measured as Arbitrary Fluorescence Units and percent adhesion in the absence of peptide is adjusted to 100% and the percent adhesion in the presence of peptides is calculated. Inhibitory concentrations (IC50) are determined based on 100% adhesion of cells that were incubated in the absence of drugs. Stimulation of protein kinase C by phorbol esters such as […] (PMA) increases the observed adhesion approximately 5-fold. This PMA induced adhesion is 100% blocked by anti-LFA-1 or anti-CD18 antibodies and about 75-80% by anti-ICAM-1 antibodies, while it is unaffected by antibodies to Mac-1, α4 or control antibodies. Thus, this assay measures preferentially the interaction between ICAM-1 and LFA-1.

The test system of data set [2] is U937 cells. The data set is classed as cell-based. An excerpt: (§1) The activity in the assay was not due to cytotoxic activity of the compounds.
For data set [3], the system named is JY cells. The data set is described as follows: Proliferation of JY cells (cytotoxicity evaluation). The data set is classed as cell-based, human.
From the text: as §1

Data set [4] relates to rhinovirus. Particulars: Martin, S. D. et al.; cited from earlier work.

Read-outs that look alike come from different tables or passages of the source.

T1 sequence (P20701 26-1170): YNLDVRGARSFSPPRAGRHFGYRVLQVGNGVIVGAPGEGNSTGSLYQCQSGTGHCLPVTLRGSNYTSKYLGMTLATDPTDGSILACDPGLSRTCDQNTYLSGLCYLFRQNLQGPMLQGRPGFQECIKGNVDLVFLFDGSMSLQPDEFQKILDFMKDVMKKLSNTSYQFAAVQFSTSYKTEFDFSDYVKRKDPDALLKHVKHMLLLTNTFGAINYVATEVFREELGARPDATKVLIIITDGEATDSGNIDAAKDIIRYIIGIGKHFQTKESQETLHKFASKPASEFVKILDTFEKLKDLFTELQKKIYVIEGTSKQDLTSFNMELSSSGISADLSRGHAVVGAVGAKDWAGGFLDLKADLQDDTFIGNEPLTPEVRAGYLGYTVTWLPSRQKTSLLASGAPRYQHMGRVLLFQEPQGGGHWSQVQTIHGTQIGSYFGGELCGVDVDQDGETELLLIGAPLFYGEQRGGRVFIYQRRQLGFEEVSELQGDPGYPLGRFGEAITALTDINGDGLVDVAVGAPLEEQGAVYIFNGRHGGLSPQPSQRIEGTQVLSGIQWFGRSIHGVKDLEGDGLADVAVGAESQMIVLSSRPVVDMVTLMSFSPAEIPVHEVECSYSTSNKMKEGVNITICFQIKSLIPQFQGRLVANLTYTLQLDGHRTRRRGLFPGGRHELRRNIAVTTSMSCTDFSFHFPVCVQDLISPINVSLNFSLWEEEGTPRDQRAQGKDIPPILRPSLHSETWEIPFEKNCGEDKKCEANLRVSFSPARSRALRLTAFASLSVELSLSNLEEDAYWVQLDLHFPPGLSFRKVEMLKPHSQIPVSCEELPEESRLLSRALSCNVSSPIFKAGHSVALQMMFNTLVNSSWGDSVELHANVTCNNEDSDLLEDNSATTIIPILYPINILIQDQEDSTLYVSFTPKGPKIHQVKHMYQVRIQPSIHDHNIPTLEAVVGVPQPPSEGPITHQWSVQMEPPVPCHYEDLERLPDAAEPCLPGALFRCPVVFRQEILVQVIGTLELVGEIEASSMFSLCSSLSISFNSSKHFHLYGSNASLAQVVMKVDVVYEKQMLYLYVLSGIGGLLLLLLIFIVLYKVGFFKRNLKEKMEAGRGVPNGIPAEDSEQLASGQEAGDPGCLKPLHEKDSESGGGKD
T1 sequence (P05107 23-769): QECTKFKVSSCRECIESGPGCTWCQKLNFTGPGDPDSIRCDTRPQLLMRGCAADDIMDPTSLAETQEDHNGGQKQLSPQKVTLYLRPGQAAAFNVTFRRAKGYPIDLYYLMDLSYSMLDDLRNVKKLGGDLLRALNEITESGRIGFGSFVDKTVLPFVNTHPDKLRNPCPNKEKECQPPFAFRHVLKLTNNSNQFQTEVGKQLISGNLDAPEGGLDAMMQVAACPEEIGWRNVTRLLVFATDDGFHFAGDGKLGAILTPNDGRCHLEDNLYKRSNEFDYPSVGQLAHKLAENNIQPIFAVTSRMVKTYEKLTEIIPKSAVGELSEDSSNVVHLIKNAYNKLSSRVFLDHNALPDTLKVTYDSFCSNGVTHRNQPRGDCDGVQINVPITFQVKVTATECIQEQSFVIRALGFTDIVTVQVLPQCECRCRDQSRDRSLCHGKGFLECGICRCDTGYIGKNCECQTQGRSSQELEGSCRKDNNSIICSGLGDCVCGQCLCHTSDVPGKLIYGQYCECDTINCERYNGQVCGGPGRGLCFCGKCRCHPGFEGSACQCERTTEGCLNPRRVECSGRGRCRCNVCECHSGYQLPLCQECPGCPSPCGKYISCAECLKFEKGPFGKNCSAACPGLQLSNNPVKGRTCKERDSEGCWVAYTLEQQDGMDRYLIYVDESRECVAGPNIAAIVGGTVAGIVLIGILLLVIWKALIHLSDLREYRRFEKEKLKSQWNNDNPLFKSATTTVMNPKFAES

With `O=S(=O)(NC12CC3CC(CC(C3)C1)C2)c1ccc2ncccc2c1` [Example 30, 1-(6-Quinolinesulfonyl)-1-aminoadamantane], in data set [1], the IC50 came to 23 µM. Turning to `O=S(=O)(c1ccc2c(Cl)cccc2c1)N1CC2CCC(CC2)C1` [Example 5, 3-(5-Chloro-2-naphthylsulfonyl)-3-azabicyclo[3.2.2]nonane], the IC50 in data set [1] was found to be 0.5 µM. In data set [2], the “inhibition of proliferation of U937 cells” value is recorded as “did not inhibit the proliferation of JY cells or U937 cells”. Moreover, the “inhibition of proliferation of JY cells” value in data set [3] was “did not inhibit the proliferation of JY cells”. For `O=S(=O)(c1ccc2ncccc2c1)N1CC2CCC(CC2)C1` [Example 29, 3-(6-Quinolinesulfonyl)-3-azabicyclo[3.2.2]nonane], in data set [1], the IC50 was 8 µM. Regarding `O=S(=O)(c1ccc2c(Cl)cccc2c1)N1CC2CCC(C2)C1` [Example 17, 3-(5-Chloro-2-naphthylsulfonyl)-3-azabicyclo[3.2.1]-octane], in data set [1], the IC50 is 15 µM.

For `O=S(=O)(c1cc(OCc2cccnc2)c2ccccc2c1)N1CC2CC3CC(C2)CC1C3` [Example 55, 4-[1-(3-Pyridinylmethoxy)-3-naphthylsulfonyl]-4-azahomoadamantane], the IC50 in data set [1] was 2.1 µM. On the same count and under the same terms, for `O=S(=O)(c1ccc2c(Cl)cccc2c1)N1CC2CC1CS2` (stereo not drawn) [Example 20, 5-(5-Chloro-2-naphthylsulfonyl-2-thia-5-azabicyclo-2.2.1]heptane] the value was 6 µM. In the case of `O=S(=O)(NC12CC3CC(CC(C3)C1)C2)c1ccc2c(Cl)cccc2c1` [Example 3, 1-(5-Chloro-2-naphthylsulfonyl)-1-aminoadamantane], the IC50 in data set [1] is 3 µM. The “inhibition of proliferation of U937 cells” value in data set [2] is listed as “did not inhibit the proliferation of JY cells or U937 cells”. Besides, in data set [3] (at concentrations active in the adhesion assay, measured after 20 hours), the “inhibition of proliferation of JY cells” value is listed as “did not inhibit the proliferation of JY cells”. As to `O=S(=O)(c1ccc2c(Cl)cccc2c1)N1CC2CC3CC(C2)CC1C3` [Example 18, 4-(5-Chloro-2-naphthylsulfonyl)-4-azahomoadamantane], the IC50 in data set [1] was 0.25 µM. `COc1ccc(S(=O)(=O)N2CC3CCC(CC3)C2)c2ccccc12` [Example 44, 3-(4-Methoxy-1-naphthylsulfonyl)-3-azabicyclo[3.2.2]nonane]: the IC50 in data set [1] came to 1.6 µM.

Turning to `O=S(=O)(c1ccc2ncccc2c1)N1CC2CC3CC(C2)CC1C3` [Example 31, 4-(6-Quinolinesulfonyl)-4-azahomoadamantane], in data set [1], the IC50 was determined as 5 µM. The same measure, in the same setting: the value for `CC(=O)Oc1cccc2cc(S(=O)(=O)NC34CC5CC(CC(C5)C3)C4)ccc12` [Example 15, 1-(5-Acetoxy-2-naphthylsulfonyl)-1-aminoadamantane] was 56 µM; that for `O=S(=O)(c1cc(OCc2cccnc2)c2ccccc2c1)N1CC2CCC(CC2)C1` [Example 54, 3-[1-(3-Pyridinylmethoxy)-3-naphthylsulfonyl]-3-azabicyclo[3.2.2]nonane] was 4.4 µM. As to `CCCCCCCCCCCCCC(=O)O[C@@H]1[C@@H](C)[C@@]2(O)[C@@H](C=C(CO)C[C@]3(O)C(=O)C(C)=C[C@@H]23)[C@@H]2C(C)(C)[C@]12OC(C)=O` [13,14-phorbol myristate acetate (PMA), 13,14-phorbol myristate acetate, reference compound], in data set [1] (stimulation of protein kinase C by PMA), the “increase of observed adhesion” value is listed as “approximately 5 fold”. Turning to `O=S(=O)(c1ccc2c(Cl)cccc2c1)N1CC2CC1CO2` (stereo not drawn) [Example 21, 5-(5-Chloro-2-naphthylsulfonyl)-2-oxa-5-azabicyclo-[2.2.1]heptane], the IC50 in data set [1] was found to be 86 µM.

Consider `O=C(O)C12CC3CC(CC(NS(=O)(=O)c4ccc5c(Cl)cccc5c4)(C3)C1)C2` [Example 24, 1-(5-Chloro-2-naphthylsulfonyl)-1-amino-3-adamantane-carboxylic acid], for which the IC50 in data set [1] came out at 136 µM.

On to `Nc1cccc2cc(S(=O)(=O)N3CC4CCC(CC4)C3)ccc12` [Example 35, 3-(5-Amino-2-naphthylsulfonyl)-3-azabicyclo[3.2.2]nonane], for which the IC50 in data set [1] was determined as 13.6 µM.

B1: soluble ICAM-1: soluble ICAM-1, specific inhibitor of rhinovirus infection (protein, UniProt P05362 28-480, looked up)
extracellular domain: QTSVSPSKVILPRGGSVLVTCSTSCDQPKLLGIETPLPKKELLLPGNNRKVYELSNVQEDSQPMCYSNCPDGQSTAKTFLTVYWTPERVELAPLPSWQPVGKNLTLRCQVEGGAPRANLTVVLLRGEKELKREPAVGEPAEVTTTVLVRRDHHGANFSCRTELDLRPQGLELFENTSAPYQLQTFVLPATPPQLVSPRVLEVDTQGTVVCSLDGLFPVSEAQVHLALGDQRLNPTVTYGNDSFSAKASVSVTAEDEGTQRLTCAVILGNQSQETLQTVTIYSFPAPNVILTKPEVSEGTEVTVKCEAHPRAKVTLNGVPAQPLGPRAQLLLKATPEDNGRSFSCSATLEVAGQLIHKNQTRELRVLYGPRLDERDCPGNWTWPENSQQTPMCQAWGNPLPELKCLKDGTFPLPIGESVTVTRDLEGTYLCRARSTQGEVTRKVTVNVLSPRYE
modifications: extracellular domain
Consider B1, for which, in data set [4], the “inhibition of rhinovirus infection” value is reported as “act as specific inhibitor of rhinovirus infection”.

Values taken from US5707985A, “Naphthyl-, quinolyl- and isoquinolyl- sulfonamide derivatives as cell adhesion modulators” (Tanabe Seiyaku Co. Ltd., priority 1995, dated 1998).
